Data published in ChEMBL document CHEMBL1795286, “A concise synthesis and antimicrobial activities of 3-polyamino-23,24-bisnorcholanes as steroid-polyamine conjugates” (2011).

Key:
Escherichia coli [1] = test: Antimicrobial activity against Escherichia coli 851E after 18 hrs by twofold agar dilution method; assay type: functional
[2] = tested on: Acinetobacter calcoaceticus; test: Antimicrobial activity against Acinetobacter calcoaceticus ATCC 15473 after 18 hrs by twofold agar dilution method; assay type: functional; conditions: ATCC 15473, 18 h
Pseudomonas aeruginosa = test: Antimicrobial activity against Pseudomonas aeruginosa 6065Y after 18 hrs by twofold agar dilution method; assay type: functional
Bacillus subtilis = test: Antimicrobial activity against Bacillus subtilis ATCC 6633 after 18 hrs by twofold agar dilution method; assay type: functional; conditions: ATCC 6633, 18 h
Escherichia coli [3] = test: Antimicrobial activity against Escherichia coli ATCC 10536 after 18 hrs by twofold agar dilution method; assay type: functional; conditions: ATCC 10536, 18 h
Moraxella catarrhalis [4] = test: Antimicrobial activity against Moraxella catarrhalis 25240 after 18 hrs by twofold agar dilution method; assay type: functional; conditions: Moraxella catarrhalis, 25240, 18 h
Escherichia coli [5] = test: Antimicrobial activity against Escherichia coli ATCC 25922 after 18 hrs by twofold agar dilution method; assay type: functional; conditions: ATCC 25922, 18 h
Morganella morganii = test: Antimicrobial activity against Morganella morganii 1375E after 18 hrs by twofold agar dilution method; assay type: functional
Enterococcus faecalis = test: Antimicrobial activity against Enterococcus faecalis ATCC 29212 after 18 hrs by twofold agar dilution method; assay type: functional; conditions: ATCC 29212, 18 h
Moraxella catarrhalis [6] = test: Antimicrobial activity against Moraxella catarrhalis C2431 after 18 hrs by twofold agar dilution method; assay type: functional; conditions: C2431, 18 h
Citrobacter freundii = test: Antimicrobial activity against Citrobacter freundii 8090 after 18 hrs by twofold agar dilution method; assay type: functional; conditions: Citrobacter freundii, 8090, 18 h
Salmonella typhimurium [7] = test: Antimicrobial activity against Salmonella Typhimurium ATCC 14028 after 18 hrs by two-fold agar dilution method; assay type: functional, Salmonella enterica subsp. enterica serovar Typhimurium; conditions: Salmonella enterica, ATCC 14028, 18 h
Salmonella typhimurium [8] = test: Antimicrobial activity against Salmonella typhimurium ATCC 13311 after 18 hrs by twofold agar dilution method; assay type: functional, Salmonella enterica subsp. enterica serovar Typhimurium; conditions: Salmonella enterica, ATCC 13311, 18 h
Proteus vulgaris = test: Antimicrobial activity against Proteus vulgaris 6059 after 18 hrs by twofold agar dilution method; assay type: functional; conditions: Proteus vulgaris, 6059, 18 h
Klebsiella aerogenes = test: Antimicrobial activity against Klebsiella aerogenes harboring beta-lactamase SHV-1 1976E mutant after 18 hrs by twofold agar dilution method; assay type: functional
Bacillus licheniformis = test: Antimicrobial activity against Bacillus licheniformis EMR after 18 hrs by twofold agar dilution method; assay type: functional
Serratia marcescens [9] = test: Antimicrobial activity against Serratia marcescens ATCC 27117 after 18 hrs by twofold agar dilution method; assay type: functional; conditions: ATCC 27117, 18 h
Staphylococcus aureus [10] = test: Antimicrobial activity against Staphylococcus aureus 241 after 18 hrs by twofold agar dilution method; assay type: functional; conditions: Staphylococcus aureus, 241, 18 h
Staphylococcus aureus [11] = test: Antimicrobial activity against Staphylococcus aureus ATCC 6538P after 18 hrs by twofold agar dilution method; assay type: functional
Klebsiella pneumoniae = test: Antimicrobial activity against Klebsiella pneumoniae 2011E after 18 hrs by twofold agar dilution method; assay type: functional
Serratia marcescens [12] = test: Antimicrobial activity against Serratia marcescens 1826E after 18 hrs by twofold agar dilution method; assay type: functional
Staphylococcus aureus [13] = test: Antimicrobial activity against Staphylococcus aureus giorgio after 18 hrs by twofold agar dilution method; assay type: functional
Staphylococcus aureus [14] = test: Antimicrobial activity against Staphylococcus aureus 77 after 18 hrs by twofold agar dilution method; assay type: functional; conditions: Staphylococcus aureus, 77, 18 h
Escherichia coli [15] = test: Antimicrobial activity against Escherichia coli 3190Y after 18 hrs by twofold agar dilution method; assay type: functional
Citrobacter koseri = test: Antimicrobial activity against Citrobacter diversus 2046 after 18 hrs by twofold agar dilution method; assay type: functional; conditions: Citrobacter koseri, 2046, 18 h
[16] = tested on: Staphylococcus epidermidis; test: Antimicrobial activity against Staphylococcus epidermidis 887E after 18 hrs by twofold agar dilution method; assay type: functional
Enterobacter cloacae [17] = test: Antimicrobial activity against Enterobacter cloacae P99 after 18 hrs by twofold agar dilution method; assay type: functional; conditions: P99, 18 h
Staphylococcus aureus [18] = test: Antimicrobial activity against Staphylococcus aureus ATCC 25923 after 18 hrs by twofold agar dilution method; assay type: functional; conditions: ATCC 25923, 18 h, read-out: MIC
Enterobacter cloacae [19] = test: Antimicrobial activity against Enterobacter cloacae ATCC 27508 after 18 hrs by twofold agar dilution method; assay type: functional; conditions: ATCC 27508, 18 h
Micrococcus luteus = test: Antimicrobial activity against Micrococcus luteus ATCC 9341 after 18 hrs by twofold agar dilution method; assay type: functional; conditions: ATCC 9341, 18 h
Bacillus cereus = test: Antimicrobial activity against Bacillus cereus ATCC 27348 after 18 hrs by twofold agar dilution method; assay type: functional; conditions: ATCC 27348, 18 h

Row | SMILES | MIC (Escherichia coli [1]) [µg/mL] | MIC [2] [µg/mL] | MIC (Pseudomonas aeruginosa) [µg/mL] | MIC (Bacillus subtilis) [µg/mL] | MIC (Escherichia coli [3]; read-out: MIC) [µg/mL] | MIC (Morganella morganii) [µg/mL] | MIC (Citrobacter freundii) [µg/mL] | MIC (Salmonella typhimurium [7]) [µg/mL] | MIC (Salmonella typhimurium [8]) [µg/mL] | MIC (Proteus vulgaris) [µg/mL] | MIC (Klebsiella aerogenes) [µg/mL] | MIC (Serratia marcescens [9]) [µg/mL] | MIC (Staphylococcus aureus [11]) [µg/mL] | MIC (Klebsiella pneumoniae) [µg/mL] | MIC (Serratia marcescens [12]) [µg/mL] | MIC (Staphylococcus aureus [13]) [µg/mL] | MIC (Citrobacter koseri) [µg/mL] | MIC (Enterobacter cloacae [17]) [µg/mL] | MIC (Staphylococcus aureus [18]) [µg/mL] | MIC (Enterobacter cloacae [19]) [µg/mL] | also measured
1 | C[C@H](CO)[C@H]1CC[C@H]2[C@@H]3CC[C@H]4C[C@@H](NCCCNCCCCNCCCN)CC[C@]4(C)[C@H]3CC[C@]12C.Cl.Cl.Cl.Cl | > 32 | > 32 | > 32 | 8 | < 32 | > 32 | > 32 | > 32 | > 32 | > 32 | > 32 | > 32 | 8 | > 32 | > 32 | 32 | > 32 | > 32 | 32 | > 32 | MIC (Moraxella catarrhalis [4]; read-out: MIC): < 32 µg/mL; MIC (Escherichia coli [5]): > 32 µg/mL; MIC (Enterococcus faecalis; read-out: MIC): < 32 µg/mL; MIC (Moraxella catarrhalis [6]; read-out: MIC): < 32 µg/mL; MIC (Bacillus licheniformis; read-out: MIC): 32 µg/mL; MIC (Staphylococcus aureus [10]; read-out: MIC): 8 µg/mL; MIC (Staphylococcus aureus [14]): > 32 µg/mL; MIC (Escherichia coli [15]): > 32 µg/mL; MIC ([16]; read-out: MIC): 32 µg/mL; MIC (Micrococcus luteus; read-out: MIC): 32 µg/mL; MIC (Bacillus cereus; read-out: MIC): < 32 µg/mL
2 | C[C@H](CO)[C@H]1CC[C@H]2[C@@H]3CC[C@H]4C[C@@H](NCCCNCCCCN)CC[C@]4(C)[C@H]3CC[C@]12C.Cl.Cl.Cl | > 32 | > 32 | > 32 | 8 | < 32 | > 32 | > 32 | > 32 | > 32 | > 32 | > 32 | > 32 | 8 | > 32 | > 32 | 16 | > 32 | > 32 | 16 | > 32 | MIC (Moraxella catarrhalis [4]; read-out: MIC): 32 µg/mL; MIC (Escherichia coli [5]; read-out: MIC): < 32 µg/mL; MIC (Enterococcus faecalis): > 32 µg/mL; MIC (Moraxella catarrhalis [6]; read-out: MIC): 32 µg/mL; MIC (Bacillus licheniformis): > 32 µg/mL; MIC (Staphylococcus aureus [10]; read-out: MIC): 8 µg/mL; MIC (Staphylococcus aureus [14]; read-out: MIC): 32 µg/mL; MIC (Escherichia coli [15]): > 32 µg/mL; MIC ([16]; read-out: MIC): 16 µg/mL; MIC (Micrococcus luteus; read-out: MIC): 16 µg/mL; MIC (Bacillus cereus): > 32 µg/mL
3 | C[C@H](CO)[C@H]1CC[C@H]2[C@@H]3CC[C@@H]4C[C@H](NCCCNCCCCNCCCN)CC[C@]4(C)[C@H]3CC[C@]12C.Cl.Cl.Cl.Cl | > 32 | > 32 | > 32 | 8 | – | > 32 | > 32 | > 32 | > 32 | > 32 | > 32 | > 32 | 8 | > 32 | > 32 | 32 | > 32 | > 32 | 32 | > 32 | MIC (Escherichia coli [3]): > 32 µg/mL; MIC (Moraxella catarrhalis [4]; read-out: MIC): < 32 µg/mL; MIC (Escherichia coli [5]): > 32 µg/mL; MIC (Enterococcus faecalis): > 32 µg/mL; MIC (Moraxella catarrhalis [6]; read-out: MIC): < 32 µg/mL; MIC (Bacillus licheniformis; read-out: MIC): < 32 µg/mL; MIC (Staphylococcus aureus [10]; read-out: MIC): 8 µg/mL; MIC (Staphylococcus aureus [14]; read-out: MIC): 8 µg/mL; MIC (Escherichia coli [15]): > 32 µg/mL; MIC ([16]; read-out: MIC): 16 µg/mL; MIC (Micrococcus luteus; read-out: MIC): 8 µg/mL; MIC (Bacillus cereus): > 32 µg/mL
4 | C[C@H](CO)[C@H]1CC[C@H]2[C@@H]3CC[C@@H]4C[C@H](NCCCNCCCCN)CC[C@]4(C)[C@H]3CC[C@]12C.Cl.Cl.Cl | > 32 | > 32 | > 32 | 32 | < 32 | > 32 | > 32 | > 32 | > 32 | > 32 | > 32 | > 32 | 32 | > 32 | > 32 | 32 | > 32 | > 32 | 32 | > 32 | MIC (Moraxella catarrhalis [4]): > 32 µg/mL; MIC (Escherichia coli [5]): > 32 µg/mL; MIC (Enterococcus faecalis): > 32 µg/mL; MIC (Moraxella catarrhalis [6]): > 32 µg/mL; MIC (Bacillus licheniformis; read-out: MIC): < 32 µg/mL; MIC (Staphylococcus aureus [10]): > 32 µg/mL; MIC (Staphylococcus aureus [14]; read-out: MIC): 32 µg/mL; MIC (Escherichia coli [15]; read-out: MIC): < 32 µg/mL; MIC [16]: > 32 µg/mL; MIC (Micrococcus luteus): > 32 µg/mL; MIC (Bacillus cereus): > 32 µg/mL
